One assay concerns p-ERK1/2 in DLD-1 cells. Nature of the assay: Inhibition of p-ERK1/2 in DLD-1 cells (Cisbio Advanced phospho-ERK1/2 kit). Format: cell-based. The note with it: Homo sapiens; DLD-1 cells (KRAS G13D mutation), hEGF 5 nM stimulation; read-out: IC50 (nM) Inhibition on p-ERK½ in DLD-1 cells. From the text:
The following method was used to determine the inhibition activities of the compounds of the present invention on p-ERK1/2 in DLD-1 cells. The Advanced phospho-ERK1/2 (Thr202/tyr2O4) kit (Art. No. 64AERPEH) from Cisbio was used in this method. Please refer to the kit instruction for detailed experimental operations. DLD-1 cells (containing KRAS G13D mutation) were purchased from the Cell Resource Center of Shanghai Institutes for Biological Sciences, Chinese Academy of Sciences.
The experimental process can be briefly described as follows: DLD-1 cells were cultured in RPMI 1640 complete medium containing 10% fetal bovine serum, 100 U penicillin, 100 μg/mL streptomycin and 1 mM Sodium Pyruvate. DLD-1 cells were plated in a 96-well plate at 30,000 cells per well, after cultured overnight in 5% CO2 incubator at 37° C. with complete culture medium. The test compounds were dissolved in DMSO to prepare storage solutions of 10 mM, and then diluted with RPMI 1640 basic mediums. 90 μL of RPMI 1640 basic mediums containing the test compounds at the corresponding concentration were added to each well. The final concentrations of the test compounds in the reaction system were 10,000 nM to 0.15 nM, and were placed in a cell culture incubator for 3 hours and 40 minutes. Subsequently, 10 μL of hEGF (purchased from Roche, Art. No. 11376454001) prepared with RPMI 1640 basic medium was added to a final concentration of 5 nM, and placed in the incubator for culturing for 20 minutes. The cell supernatant was discarded, and the cells were washed with PBS on ice-bath. Then, 45 μl of 1× cell phospho/total protein lysis buffer (component of Advanced phospho-ERK1/2 kit) was added to each well for lysis. The 96-well plate was placed on ice for 0.5 hours to lyse, and then the lysate was detected according to the instruction of the Advanced phospho-ERK1/2 (Thr202/tyr2O4) kit. Finally, the microplate reader was used in […] mode to measure the fluorescence intensity of each well emitting wavelengths of 620 nm and […] under the excitation wavelength of 304 nm, and the fluorescence intensity ratio 665/620 in each well was calculated. By comparing with the fluorescence intensity ratio of a control group (0.1% DMSO), the percentage inhibition rates of the test compounds at each concentration were calculated, and the IC50 values of the compounds were obtained by performing nonlinear regression analysis with logarithmic values of the compound concentration-inhibition rate by GraphPad Prism 5 software, which can be seen in Table 3.

A further assay relates to NCI-H358 cells. The assay can be described thus: Inhibition of NCI-H358 cell proliferation under 3D non-anchored conditions (CellTiter-Glo 3D). The assay is classed as cell-based. The note with it: Homo sapiens, NCI-H358 cells (KRAS G12C mutation), 120 hours. As for the experimental part: The following method was used to determine the effects of the compounds of the present invention on NCI-H358 cell proliferation under three-dimensional (3D) non-anchored conditions. NCI-H358 cells (containing KRAS G12C mutation) were purchased from the Cell Resource Center of Shanghai Institutes for Biological Sciences, Chinese Academy of Sciences, and cultured in RPMI 1640 medium containing 10% fetal bovine serum, 100 U penicillin, 100 μg/mL streptomycin and 1 mM Sodium Pyruvate. The activities of the cells were determined by CellTiter-Glo® 3D Cell Viability Assay Kit (Promega, Art. No. G9683).
The experimental method was operated according to the steps in the kit instruction, which can be briefly described as follows: the test compounds were first dissolved in DMSO to prepare storage solutions of 10 mM, and then diluted with culture mediums to prepare test samples. The final concentrations of the compounds were 10000 nM to 0.15 nM. Cells in logarithmic phase were inoculated in an ultra-low adsorption 384-well cell culture plate (PerkinElmer, #3830) with 2000 cells per well, and the test compounds were added and cultured for 120 hours. After the culture was completed, 30 μL of CellTiter-Glo 3D detection solution was added to each well, shaken for 30 minutes and then stood for 120 minutes. Then, a Luminescence mode was used to read the luminescence values of each well of the samples on a microplate reader. By comparing with the numerical value of a control group (0.1% DMSO), the percentage inhibition rates of the compounds at each concentration were calculated, and the IC50 values of the compounds inhibiting cell proliferation were obtained by performing nonlinear regression analysis with logarithmic values of the compound concentration-inhibition rate by GraphPad Prism 5 software, which can be seen in Table 4.

For orientation: IC50 means the midpoint of a concentration-inhibition curve.

As for `COc1cc2nc(C)nc(N[C@H](C)c3cccc(C#N)c3C)c2cc1N1CCOCC1` [Compound 1, (R)-3-(1-((7-methoxy-2-methyl-6-morpholinoquinazolin-4-yl)amino)ethyl)-2-methylbenzonitrile], the values for the IC50 in the assay on p-ERK1/2 in DLD-1 cells and in the assay on NCI-H358 cells were 48.7 nM and 78.3 nM, respectively. As to `COc1cc2nc(C)nc(N[C@H](C)c3cccc(C#N)c3C)c2cc1N1CCN(C(C)=O)CC1` [Compound 2, (R)-3-(1-((6-(4-acetylpiperazin-1-yl)-7-methoxy-2-methylquinazolin-4-yl)amino)ethyl)-2-methylbenzonitrile], the IC50 stood at 65.4 nM in the assay on p-ERK1/2 in DLD-1 cells and 49.6 nM in the assay with NCI-H358 cells. As for `COc1cc2nc(C)nc(N[C@H](C)c3cccc(C#N)c3C)c2cc1N1CCC2(CCOCC2)CC1` [Compound 4, (R)-3-(1-((7-methoxy-2-methyl-6-(3-oxa-9-azaspiro[5.5]undecan-9-yl)quinazolin-4-yl)amino)ethyl)-2-methylbenzonitrile], the IC50 in the assay with NCI-H358 cells was found to be 7 nM.

Turning to `COc1cc2nc(C)nc(N[C@H](C)c3cccc(C#N)c3C)c2cc1N1CCC2(CC1)COC2` [Compound 5, (R)-3-(1-((7-methoxy-2-methyl-6-(2-oxa-7-azaspiro[3.5]nonan-7-yl)quinazolin-4-yl)amino)ethyl)-2-methylbenzonitrile], the half-inhibitory concentration (IC50) in the assay on p-ERK1/2 in DLD-1 cells worked out at 66.1 nM; in the assay on NCI-H358 cells, 10.7 nM. For `COc1cc2nc(C)nc(N[C@H](C)c3cccc(C#N)c3C)c2cc1N1CCC2(CCN(C)C2=O)CC1` [Compound 7, (R)-3-(1-((7-methoxy-2-methyl-6-(2-methyl-1-oxo-2,8-diazaspiro[4.5]decan-8-yl)quinazolin-4-yl)amino)ethyl)-2-methylbenzonitrile], the IC50 with p-ERK1/2 in DLD-1 cells was found to be 31.1 nM. The same measure, in the same setting: as for `COc1cc2nc(C)nc(N[C@H](C)c3cccc(C#N)c3C)c2cc1N1CCC(C#N)CC1` [Compound 8, (R)-1-(4-((1-(3-cyano-2-methylphenyl)ethyl)amino)-7-methoxy-2-methylquinazolin-6-yl)piperidine-4-carbonitrile], the figure is 38.2 nM. For `COc1cc2nc(C)nc(N[C@H](C)c3cccc(C#N)c3C)c2cc1N1CCC(C)(O)CC1` [Compound 11, (R)-3-(1-((6-(4-hydroxy-4-methylpiperidin-1-yl)-7-methoxy-2-methylquinazolin-4-yl)amino)ethyl)-2-methylbenzonitrile], the IC50 with p-ERK1/2 in DLD-1 cells is 29.7 nM; with NCI-H358 cells, 71.4 nM. On the same counts, the results for `COc1cc2nc(C)nc(N[C@H](C)c3cccc(C#N)c3C)c2cc1N1CCC2(CC1)CN(C(C)=O)C2` [Compound 19, (R)-3-(1-((6-(2-acetyl-2,7-diazaspiro[3.5]nonan-7-yl)-7-methoxy-2-methylquinazolin-4-yl)amino)ethyl)-2-methylbenzonitrile] are 46.3 nM and 21.2 nM.

For the origin of these results see US20240382475A1, “Quinazoline Derivative, Or Preparation Method Therefor And Use Thereof” (Zhejiang Hisun Pharmaceutical Co., Ltd., priority 2021, published 2024).
